Laboratory results: patent publication US10947276B2, “Cell penetrating peptides with improved internalization properties” (SORBONNE UNIVERSITE, priority 2016, dated 2021)

Key:
[1] = system: MDA-MB231 cells; assay: Apoptosis by Annexin V-FITC staining, shuttles associated to TEAD cargo; assay type: cell-based, human; settings: 10 and 25 μM, 4 h or 24 h
Method: MDA-MB231 cells (5×10^4 cells/ml) were cultured in the presence of different concentrations of shuttles or nuclear localization shuttles associated to the cargo TEAD for 4h or 24h (Non-treated, Panel A; Mut3DPT-TEAD, Panel B; NLS18, Panel C; NLS23, Panel D; NLS18 TEAD, Panel E, NLS23 TEAD, Panel F). Apoptosis was estimated by Annexin V-FITC staining. Cells treated with shuttle without cargo or nuclear localisation signal (NLS) were used as control. Standard deviation is shown.
The apoptosis induction of the different shuttles associated to a cargo (TEAD and YAP binding sites) was analyzed by annexinV-FITC staining (e Biosciences). Human breast cancer cell line MDA-MB231 was treated with different concentrations of peptide for 4 h and 24 h. After the treatment, cells were harvested, washed and treated according to the manufacturer protocol. The level of apoptosis was measured by flow cytometry (BD Biosciences, FACS Canto.
We further analyzed whether the weak apoptotic effect of the mut3DPT-TEAD peptide was increased in the new generated tri-functional peptides. Cells were cultured for 4 h or 24 h with 10 and 25 μM of NLS-18 or NLS-23 and apoptosis estimated by Annexin staining (FIG. 16). The association of TEAD interfering peptide to the NLS18 or NLS23 peptides strongly increases the apoptotic effect, compared to the control peptide.

[2] = system: MCF-7, PBMC; assay: Internalization of shuttles by fluorescence microscopy, mass spectrometry and flow cytometry; assay type: cell-based, human; settings: MCF-7 25 μM (microscopy), 100 μM (MS); B cells of PBMC 100 μM 4 h
Method: A) MCF-7 cells were grown on coverslips and incubated 1 h at 37° C. with 25 μM of FITC-labelled peptides. Cells were washed 3 times with PBS, fixed with 4% paraphormaldeyde (PFA) and analyzed by fluorescence microscopy. Quantification of the microscopy images is shown. B) MCF7 were grown as above and incubated for different periods of time at 37° C. with 25 μM of FITC-labelled shuttles. Cells were treated as above and analyzed by fluorescence microscopy.
MCF-7 cells were cultured 4 h with 100 μM of each shuttle. After several washing steps, they were lysed and the extracts centrifuged. The intracellular peptide was detected by MS. Pure peptide was used as a control of molecular weight.
A) B cells were isolated (anti-hCD19-APC antibody) from peripheral blood mononuclear cells (PBMC) of healthy donors (HD) or B) chronic lymphocytic leukemia (CLL) patients. Cells were incubated 4 h with 100 μM of the FITC-labelled shuttles. The mean fluorescence intensity was detected by flow cytometry. Non treated cells were used as control.
Peripheral blood mononuclear cells from healthy (HD) donors or chronic lymphocytic leukaemia patients (CLL) were treated with FITC-labelled peptides and them, cells were harvested and washed twice with PBS to remove the extracellular unbound peptide. FITC fluorescence intensity of internalized peptide was measured by flow cytometry (BD Biosciences) by acquiring 10,000 live cells. B cells were selected with anti hCD19-APC labelled antibody. Experiments were carried out three times in duplicate. Untreated cells were used as control.
(§1) For intracellular localization of FITC-labelled peptides, MDA-MB231 or MCF7 cells were seeded in an 8-well Labtek (Thermo Fischer) at a density of 2×10^4 cells/well. Cells were treated with different concentrations of FITC-labelled peptides for different times. Cells were fixed with 4% of formaldehyde for 15 min at room temperature. Samples were washed twice with PBS and mounted in mounting solution containing DAPI. Images were captured with a fluorescence microscopy (Olympus Japan) using 63× magnification objective.
To detect the internalization of the peptides, breast cancer cell line MCF-7 cells were seeded in a 6-well plate at a density of 1×10^6 cells/well in DMEM medium supplemented with 10% FCS. Cells were treated with 100 μM of each shuttle for 4 h at 37° C., then cells were washed once with PBS. Cell pellet was collected by detaching with Trypsin EDTA following several washing step with PBS. Cells were resuspended in lysis buffer (Tris-HCl 50 mM, NaCl 20 mM, pH 8.0, supplemented with protease inhibitors) and lysed with Glass/Teflon potter (Elvehjem homogenizers), then centrifuged for 20 min at 16,000 g at 4° C. The peptides in the supernatant were concentrated with Ziptips (Millpore, ZTC18S096) according to the manufacture's protocol. The internalization of peptide was detected by mass spectrometry (MS) using a MALDI-TOF (Brucker Autoflx II). MS data were analyzed using appropriate software (Clinprot tools, Flex analysis, Brucker).
The inventors incubated the cells (MCF-7, PBMC) with the peptides at different concentrations (respectively 25 μM, and 100 μM) and analyzed the presence of the shuttles into the cells by fluorescence microscopy, mass spectrometry (MS) and flow cytometry.

[3] = Peptide stability in human serum by MALDI-TOF mass spectrometry; assay type: in vitro ADME; settings: for stability (integrity) compared to control Mut3DPT: 37° C., human serum/plasma, 0 to 24 h
Method: A) Mut3DPT, Mut4DPT, Mut5DPT, Mut6DPT and Mut7DPT peptides were incubated at 37° C. in human serum for different periods of time and their integrity (percentage of intact peptide) were analyzed by mass spectrometry. Similar results were obtained in two independent experiments.
FIG. 5. Mut3DPT, Tat, Penetratin and R8 were treated and analyzed as above. The stability is referred to the intensity of the peaks.
Mut3DPT, as well as Mut4DPT, Mut5DPT, Mut6DPT and Mut7DPT were incubated at 37° C. in 250 μl human serum for different periods of time. Samples were collected and peptide degradation stopped by freezing. Peptides were extracted from collected samples using the ProteoMiner Protein Enrichment System (Bio-Rad). Peptide integrity (percentage of intact peptide) was analyzed by mass spectrometry using a MALDI-TOF (Brücker Autoflex II) following their standard protocols. Every measurement was performed by triplicate. MS data were analyzed using appropriate software (Clinprot tools, Flex analysis, Brücker).
The inventors have analyzed whether these new generated peptides have enhanced stability in plasma, compared to the control Mut3DPT. The peptides were incubated for different periods of time (from 0 to 24 h) at 37° C. with human plasma and their stability was analyzed by mass spectrometry (MS). […] The synthetic peptides Mut5DPT, Mut6DPT and Mut7DPT are also very stable to proteases degradation, compared to the control peptide Mut3DPT. Taken together, we can conclude that there is no modification of the stability upon 24 h of incubation with human serum.

[4] = system: MCF-7 cells; assay: Intracellular detection of FITC-labelled peptides by FACS; assay type: cell-based, human; settings: MCF-7 (similar in Jurkat); for kinetic of internalization compared to control peptide Mut3DPT: 50 μM, different periods of time
Method: (§2) MCF-7 or Jurkat cell lines were cultured in the presence or in the absence of Mut3DPT (Panel A), Mut4DPT (Panel B), Mut5DPT (Panel C), Mut6DPT (Panel D) or Mut7DPT (Panel E) at 50 μM for different periods of time. The intensity of the FITC fluorescence due to the shuttle internalization was measured by FACS. The results presented in the figure correspond to MCF-7 cells. Similar results were obtained using Jurkat cell line.
as §2, with “different concentrations” for “50 μM”, “4 h.” for “different periods of time.”
Jurkat and MCF-7 cells were incubated with different concentrations of FITC-labeled peptides, then washed and analyzed by FACS in order to detect the intensity of fluorescence into the cells. Similarly, Jurkat and MCF-7 cells were incubated with a given peptide concentration at different times and after washing, cells were analyzed by FACS to estimate the intensity of fluorescence into the cells.
The inventors incubated the cells (Jurkat and MCF-7) with the peptides at different concentrations and different times and analyzed the intensity of the fluorescence into the cells by FACS. The result of kinetic of time incubation is shown on FIG. 1 and the kinetic of peptide concentration is shown on FIG. 2.

[5] = system: MDA-MB231 cell line; assay: Toxicity of CPP-NLS peptides by FACS; settings: 25 and 50 μM, 4 h of incubation
Method: MDA-MB231 cells (6×10^4 cells/ml) were incubated 4 h with two different concentrations of peptide. Toxicity was analyzed by flow cytometry. […] Non treated cells were used as a control.
The peptides were added to MDA-MB231 cell line at 25 and 50 μM and the toxicity was analyzed by FACS upon 4 h of incubation.

[6] = system: MDA-MB231 cells; assay: Intracellular localization of FITC-labelled peptides by fluorescence microscopy; assay type: cell-based, human; settings: 30 μM, 4 h
Method: MDA-MB231 cells (3×10^4 cells/ml) were grown on cover slips and incubated 4 h with 30 μM of FITC-labelled peptides. Cells were washed 3 times with PBS, fixed with 4% paraformaldeyde (PFA) and analyzed by fluorescence microscopy. Cells treated with mut7DPT-FITC were used as control.
MDA-MB231 cells (3×10^4 cells/ml) were grown on cover slips and incubated with 30 μM of peptide for different periods of time. Cells were washed 3 times with PBS, fixed with 4% PFA and analyzed by fluorescence microscopy.
MDA-MB231 cells (3×10^4 cells/ml) were incubated in cover slips for 3 h with 15 μM of the FITC-labelled peptides associated to a cargo (TEAD or YAP peptides). Cells were washed 3 times with PBS, fixed with 4% PFA and analyzed by fluorescence microscopy.
as §1, with “was” for “or MCF7 cells were”, “3×10^4” for “2×10^4”, “fixed or not” for “fixed”

| Compound | internalization compared to the control peptide Mut3DPT [2] | internalization, ranking among the new peptides [2] | stability (integrity) compared to control Mut3DPT [3] | time to plateau of internalization ([4]; 50 μM FITC-labelled peptide) [min] | kinetic of internalization compared to control peptide Mut3DPT [4] | further results |
| --- | --- | --- | --- | --- | --- | --- |
| VKKKKIKAEIKI-RLQLVEFSAFVEPPDAVD (VKKKKIKAEIKIRLQLVEFSAFVEPPDAVD; Mut3DPT-TEAD) |  |  |  |  |  | apoptotic effect [1]: weak |
| RRWRRWRRWRR (Shuttle peptide Mut6DPT) | better internalization | a better internalization | very stable | 15 | rapidly internalized | share of the total fluorescence achieved one minute after incubation ([4]; 50 μM FITC-labelled peptide, 1 min): Around 50% |
| KKKKKWKKWKKK (Shuttle peptide Mut7DPT) | better internalization | a better internalization | very stable | 30 |  | toxicity [5]: none of the peptides show toxicity; nuclear staining [6]: does not show nuclear staining |
| N=C(N)NCCC[C@H](NC(=O)[C@H](CCCNC(=N)N)NC(=O)[C@H](CCCNC(=N)N)NC(=O)[C@H](CCCNC(=N)N)NC(=O)[C@H](CCCNC(=N)N)NC(=O)[C@H](CCCNC(=N)N)NC(=O)[C@H](CCCNC(=N)N)NC(=O)[C@@H](N)CCCNC(=N)N)C(=O)O [Peptide R8, reference compound] |  |  |  |  |  | degradation compared to control Mut3DPT ([3]; 6 h incubation with human serum at 37° C.): stronger degradation; degradation ([3]; 24 h incubation with human serum): extensively degraded |
| KKWKKWKKWKK (Shuttle peptide Mut5DPT) | better internalization |  | very stable |  | better internalization |  |
| VKKWKIKWWIKI (shuttle peptide Mut4DPT) | better internalization |  | as stable as the parental peptide |  | better internalization |  |
